Key:
MRCKB (CDC42BPB) = MRCKB (CDC42BPB) (Homo sapiens, UniProt Q9Y5S2); test: in vitro radioisotope […] kinase assay, 10-dose; format: biochemical
MRCKA (CDC42BPA) = MRCKA (CDC42BPA) (Homo sapiens, UniProt Q5VT25); test: in vitro radioisotope […] kinase assay, 10-dose; format: biochemical
MRCKA (CDC42BPA), sequence (Q5VT25 whole entry): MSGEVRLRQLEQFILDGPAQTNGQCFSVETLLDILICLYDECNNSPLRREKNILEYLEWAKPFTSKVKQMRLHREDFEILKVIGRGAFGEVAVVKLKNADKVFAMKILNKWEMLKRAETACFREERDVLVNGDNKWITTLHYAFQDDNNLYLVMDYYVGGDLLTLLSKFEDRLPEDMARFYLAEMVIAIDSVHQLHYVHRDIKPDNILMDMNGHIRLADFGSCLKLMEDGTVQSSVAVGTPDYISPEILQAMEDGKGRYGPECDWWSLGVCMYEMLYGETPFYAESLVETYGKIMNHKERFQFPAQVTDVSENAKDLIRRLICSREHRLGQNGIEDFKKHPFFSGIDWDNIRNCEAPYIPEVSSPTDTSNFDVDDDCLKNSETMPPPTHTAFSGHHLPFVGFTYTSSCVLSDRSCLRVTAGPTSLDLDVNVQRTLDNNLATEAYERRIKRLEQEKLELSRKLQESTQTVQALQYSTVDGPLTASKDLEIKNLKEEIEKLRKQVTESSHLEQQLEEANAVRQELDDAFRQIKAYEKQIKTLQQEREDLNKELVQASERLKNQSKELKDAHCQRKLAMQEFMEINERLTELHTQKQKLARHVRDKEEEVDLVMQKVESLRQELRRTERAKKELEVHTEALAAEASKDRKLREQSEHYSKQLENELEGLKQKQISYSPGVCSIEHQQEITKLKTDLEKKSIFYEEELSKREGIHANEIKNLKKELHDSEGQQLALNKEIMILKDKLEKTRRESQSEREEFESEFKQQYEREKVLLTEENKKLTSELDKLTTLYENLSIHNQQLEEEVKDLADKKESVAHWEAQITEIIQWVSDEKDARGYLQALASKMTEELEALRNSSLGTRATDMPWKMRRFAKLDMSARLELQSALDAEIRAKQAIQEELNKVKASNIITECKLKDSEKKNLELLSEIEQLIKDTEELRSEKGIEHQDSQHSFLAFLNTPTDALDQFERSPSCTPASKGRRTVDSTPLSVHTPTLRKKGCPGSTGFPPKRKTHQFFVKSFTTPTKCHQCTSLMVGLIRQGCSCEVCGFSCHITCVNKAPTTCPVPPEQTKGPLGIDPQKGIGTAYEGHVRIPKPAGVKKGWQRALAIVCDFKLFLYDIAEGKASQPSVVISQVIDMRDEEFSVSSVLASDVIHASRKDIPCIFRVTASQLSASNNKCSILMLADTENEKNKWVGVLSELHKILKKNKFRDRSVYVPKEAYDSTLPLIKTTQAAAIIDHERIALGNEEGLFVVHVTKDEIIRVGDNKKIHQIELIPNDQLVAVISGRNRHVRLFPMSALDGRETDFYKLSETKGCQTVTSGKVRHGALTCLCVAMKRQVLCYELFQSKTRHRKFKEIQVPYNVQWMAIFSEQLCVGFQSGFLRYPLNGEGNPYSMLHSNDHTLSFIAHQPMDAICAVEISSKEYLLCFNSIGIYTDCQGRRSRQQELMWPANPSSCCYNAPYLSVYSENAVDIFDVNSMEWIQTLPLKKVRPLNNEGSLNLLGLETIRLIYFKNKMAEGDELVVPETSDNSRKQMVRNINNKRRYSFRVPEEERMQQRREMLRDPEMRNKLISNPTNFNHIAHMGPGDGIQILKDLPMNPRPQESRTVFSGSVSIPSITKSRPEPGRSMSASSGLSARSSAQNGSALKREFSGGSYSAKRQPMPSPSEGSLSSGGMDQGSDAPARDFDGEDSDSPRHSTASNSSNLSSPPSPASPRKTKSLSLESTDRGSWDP

MRCKB (CDC42BPB), sequence (Q9Y5S2 whole entry): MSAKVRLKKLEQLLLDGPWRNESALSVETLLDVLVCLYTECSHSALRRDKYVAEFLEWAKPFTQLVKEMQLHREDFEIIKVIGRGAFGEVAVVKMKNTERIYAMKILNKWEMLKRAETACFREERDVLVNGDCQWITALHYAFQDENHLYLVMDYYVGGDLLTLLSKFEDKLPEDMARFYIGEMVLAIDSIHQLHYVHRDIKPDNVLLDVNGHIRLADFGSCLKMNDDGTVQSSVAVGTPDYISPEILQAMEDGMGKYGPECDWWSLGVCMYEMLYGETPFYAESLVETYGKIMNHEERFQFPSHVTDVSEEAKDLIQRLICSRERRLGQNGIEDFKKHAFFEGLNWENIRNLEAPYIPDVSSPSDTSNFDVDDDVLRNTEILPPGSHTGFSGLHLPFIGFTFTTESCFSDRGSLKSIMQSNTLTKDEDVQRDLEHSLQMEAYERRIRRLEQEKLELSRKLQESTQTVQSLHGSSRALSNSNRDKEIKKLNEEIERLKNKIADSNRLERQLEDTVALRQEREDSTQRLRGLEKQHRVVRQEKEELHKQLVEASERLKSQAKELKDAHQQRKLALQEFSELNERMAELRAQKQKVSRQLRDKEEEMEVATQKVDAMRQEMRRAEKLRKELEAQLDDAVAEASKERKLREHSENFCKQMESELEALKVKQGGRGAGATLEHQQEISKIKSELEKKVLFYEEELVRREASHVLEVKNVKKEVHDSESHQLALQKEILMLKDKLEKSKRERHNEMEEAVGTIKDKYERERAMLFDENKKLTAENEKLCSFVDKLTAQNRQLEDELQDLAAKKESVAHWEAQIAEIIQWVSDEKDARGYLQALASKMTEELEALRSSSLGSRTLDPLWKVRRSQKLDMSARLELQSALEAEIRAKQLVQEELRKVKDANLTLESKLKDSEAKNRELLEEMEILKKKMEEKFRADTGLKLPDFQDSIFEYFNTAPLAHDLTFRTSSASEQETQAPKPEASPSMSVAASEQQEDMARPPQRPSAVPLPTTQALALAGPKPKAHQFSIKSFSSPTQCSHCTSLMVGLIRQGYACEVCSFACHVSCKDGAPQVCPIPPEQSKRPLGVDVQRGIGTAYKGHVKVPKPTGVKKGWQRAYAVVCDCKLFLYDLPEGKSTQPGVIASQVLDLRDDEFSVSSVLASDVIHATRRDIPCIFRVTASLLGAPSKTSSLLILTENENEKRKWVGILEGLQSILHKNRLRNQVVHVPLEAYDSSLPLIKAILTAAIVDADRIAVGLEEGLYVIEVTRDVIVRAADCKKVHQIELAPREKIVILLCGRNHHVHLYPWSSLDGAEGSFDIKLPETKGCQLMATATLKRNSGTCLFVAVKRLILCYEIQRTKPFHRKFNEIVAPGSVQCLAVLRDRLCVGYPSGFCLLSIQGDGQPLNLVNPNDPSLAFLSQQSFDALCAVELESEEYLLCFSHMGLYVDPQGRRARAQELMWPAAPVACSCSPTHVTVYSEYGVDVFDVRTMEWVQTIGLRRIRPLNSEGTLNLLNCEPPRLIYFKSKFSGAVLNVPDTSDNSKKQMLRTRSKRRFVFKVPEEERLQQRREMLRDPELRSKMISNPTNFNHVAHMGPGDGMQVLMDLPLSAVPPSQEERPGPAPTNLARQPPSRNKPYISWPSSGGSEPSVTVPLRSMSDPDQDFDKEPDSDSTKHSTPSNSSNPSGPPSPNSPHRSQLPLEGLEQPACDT

BDP9066
EC50 (MRCKB (CDC42BPB)): 72 nM
EC50 (MRCKA (CDC42BPA)): 65 nM

Source: publication PMC7294993 (Science signaling, 2020)
